These results are taken from patent US11491146B2, “Therapeutic methods and combinations” (priority 2017, dated 2022).

“And” between values parts separate entries of the source, which are not always exact repeats. Equal entries are not always repeated. Where two headings read alike, the source gives them in different places.

Series [1] deals with E. coli. The experiment in a line: Cell viability assay, wild type E. coli growth. Format: cell-based. The settings on record: for relative percentage growth compared to untreated cells: E. coli. How it is done:
(§1) The cells were cultured on 0.8 g/100 ml nutrient agar plate at pH 7.0 and 37° C. The bacterial growth medium was diluted in nutrient broth (NB) to a concentration absorbance of 1.5 at OD600 nm and incubated overnight in 10 ml capped culture tubes with shaking. An overnight culture of the bacterial strain was sub-cultured to an optical density of 0.06 at OD600 nm into the NB medium and was then seeded at max 200 μl into the wells of a 96 well microtiter plate. Samples were then incubated at 37° C. and shaken at 200 rpm for 18 h.

In series [2] the test system is VIM2 expressing E. coli. In kind it is cell-based. How it is done: as §1
Series [3] concerns the target T1, VIM-2 (Pseudomonas aeruginosa, UniProt Q9K2N0). The experiment in a line: Single dose enzymatic inhibition assay against VIM2 (nitrocefin hydrolysis). Format: biochemical, P. aeruginosa. To be noted: for VIM2 inhibition in words: single dose, 50 μM. The method, then:
(§2) For our biochemical assay, the blavmugene, from a clinical strain of P. aeruginosa, was expressed using the pET24a (+) vector [20]. The pET24a-VIM-2 plasmid was transformed into competent BL21 (DE3) E. coli cells. The cells were plated onto an LB-agar plate with kanamycin (25 μg/mL) and incubated overnight at 37° C. A single colony was used to inoculate 50 mL of LB, containing 25 μg/mL kanamycin, and the culture was shaken overnight at 37° C. From the overnight culture, 10 mL were transferred to 4×1 L LB medium containing 25 μg/mL kanamycin. The cultures were grown at 37° C. until the optical density (OD600 nm) reached 0.6-0.8, at which point protein production was induced with IPTG (0.5 mM) and ZnC12 (100 μM). The temperature was reduced to 20° C., and the cells were shaken for an additional 18 h. The cultures were harvested by centrifugation (8K×g) for 10 min at 4° C. The resulting pellets were re-suspended with 25 mL of 50 mM HEPES, pH 7.5, containing 500 mM NaCl (buffer B). The cells were lysed with three passes through a French Press. The lysate was centrifuged (15 Kxg) for 30 min at 4° C. The supernatant was dialyzed against 2 L of 50 mM HEPES, pH 7.5 (buffer A), for 4 h. Buffer A was used to equilibrate a 25 mL Q-Sepharose column using an FPLC. The sample was loaded onto the column, and proteins were eluted with a linear gradient 0-500 mM NaCl with buffer B. Fractions containing VIM2, determined by SDS-PAGE, were pooled and concentrated to 2-3 mL in an Amicon ultraconcentrator equipped YM-10 membrane. Further purification was conducted with a Sephacryl S-200 gel filtration column using 50 mM HEPES, pH 7.5, containing 150 mM NaCl.

For series [4], the target named is T1, VIM-2. The experiment in a line: Dose response enzymatic inhibition assay and inhibition constant against VIM2. Format: biochemical, P. aeruginosa. To be noted: for Ligand efficiency (LE): LE = −1.38 log (Ki)/N, N = number of heavy atoms. How it is done:
as §2
The relative change in absorbance was evaluated as percentage inhibition and the IC50 was determined by fitting the data to a sigmoidal dose-response curve. The enzyme inhibition constant (Ki) was derived from initial-velocity measurements by nonlinear regression using competitive-inhibition enzyme kinetics using Graphpad Prism 6.

The nature of series [5]: Cytotoxicity by MTT cell proliferation assay in HEK293. The settings on record: human, HEK293 cells. On the technique in general: Tetrazolium assays rely on reduction of a dye to a coloured formazan, in cell work by metabolically active cells.
Protocol: (§3) Human embryonic kidney cell line (HEK293) was grown in DMEM (Dulbecco's modifications of eagle's medium with L-glutamine & 4.5 G/L glucose) supplemented with fetal bovine serum 100 units/ml of penicillin G and 0.1 mg/ml of streptomycin sulfate in a humidified atmosphere of a 5% CO2 at 37° C.
(§4) Cell proliferations were measured by counting viable cells by using the 3(4,5dimethylthiazol-2-yl)-2,5-diphenyltetrazolium bromide (MTT) (Sigma-Aldrich, St. Louis, Mo.) colorimetric dye-reduction assay. […] After 72 hrs, 10 μl of MTT (5 mg/ml) dye was added to each well and the plates were incubated for 4 hours at 37° C. in 5% CO2 incubator. After centrifuge with 1,500 rpm/10 mins, the supernatant was removed and 200 μl of dimethyl sulfoxide (DMSO) was added and the plates were gently shaken to solubilize the formed formazan for 30 min. The absorbance was measured using a micro-plate reader at wave length 590 nm. The CC50 were obtained by fitting the data to a sigmoidal dose-response equation using Graphpad Prism 6.
The test system of series [6] is VIM-2 expressing E. coli. The series is described as follows: EC50* for restoring amoxicillin growth inhibition in VIM-2 expressing E. coli. Format: cell-based. The settings on record: in the presence of 50 μM amoxicillin. The method, then:
as §1
The bacterial culture was prepared as described above. […] The mixing of the bacterial culture plate were then incubated in a 37° C. […] shaken incubator at 200 rpm for 18 h before measuring their optical density at 600 nm.

Series [7] has as its system HEK293 cells.
Protocol: as §3, §4
In series [8] the test system is HDACs. The settings on record: earlier study; cited from earlier work.
Series [9] concerns HEK293 cells. The series is described as follows: Cytotoxicity by MTT cell proliferation assay in HEK293. The settings on record: HEK293 CC50 ratio.
Protocol: as §3, §4
In series [10] the target is T1, VIM-2. To be noted: literature value; read-out: IC50 in parenthesis reported from ref. 3; cited from earlier work.
[11] abbreviates: 50 μM compound, 5 nM VIM-2, 10 μM nitrocefin, 30 mins.
Where [12] appears, read: 5 nM VIM-2, 10 μM nitrocefin, read-out: IC50.
The mark [13] stands for this setting: competitive-inhibition fit, nitrocefin substrate, read-out: Ki.

Consider `CC1(C)S[C@@H]2[C@H](NC(=O)[C@H](N)c3ccc(O)cc3)C(=O)N2[C@H]1C(=O)O` [Amox, amoxicillin], for which the “relative percentage growth compared to untreated cells” value (“relative percentage growth” below) in series [1] (Amox(+), 50 μM amoxicillin) was 3.6%; in series [2] (Amox(+), 50 μM amoxicillin), 77%. Further, the “growth inhibition by amoxicillin alone” value in [1] (wild type E. coli, 50 μM) is recorded as “over 96%”.

By % Inhibition is commonly meant the drop in the measured response relative to a control, in per cent. A higher % Inhibition goes with a response far below the control. For orientation: inhibition means how much of the control response was suppressed. A higher inhibition goes with strong suppression. For the compound `O=C(O)[C@H]1/C(=C/CO)O[C@@H]2CC(=O)N21` [Clavulanate], the “% Inhibition at 50 μM” value in series [3] (setting [11]) stood at 15%. The inhibition at 50 µM in [3] (setting [11]) is no more than 25%. The “relative percentage growth” value in [1] (Amox(+), 50 μM amoxicillin) was 2.9%; in series [1] (Amox(−)) it was 86%; in series [2] (Amox(+), 50 μM amoxicillin) it was 57%; in series [2] (Amox(−)), 93%.

On to `O=C(NC(C(=O)O)c1ccccc1)c1ccc(=O)n(O)c1` (stereo not drawn) [Compound 1, 2-(1-Hydroxy-6-oxo-1,6-dihydropyridine-3-carboxamido)-2-phenylacetic acid], for which the inhibition at 50 µM in [3] (setting [11]) is 12%. In series [3], the “VIM2 inhibition in words” value is on record as “Poor inhibition”.

A word on the IC50: it is the concentration that inhibits the measured activity by half. One may read the Ki as the dissociation constant of the complex between target and ligand, obtained from inhibition or displacement. As usually defined, the CC50 is the concentration giving 50% cytotoxicity. Read a low CC50 as harm at low concentration. Regarding `On1ccccc1=S` [Compound 2b, 1-Hydroxypyridine-2-thione], 50 µM produced 93% inhibition in series [3]. In series [4], this compound displayed an IC50 of 908 nM. The affinity in series [4] corresponds to a Ki of 217 nM. The “growth inhibition activity on its own” value in series [1] (wild type E. coli, compound alone) is recorded as “over 89%”; in series [2] (compound alone), “over 89%”. The compound further showed a CC50 at 72 h in series [5] of 14 nM.

The EC50 is the concentration needed to bring the measured effect to its halfway point. In the case of `O=C(O)c1cccc(=S)n1O` [Compound 3, 1-Hydroxypyridine-2(1H)-thiones-6-carboxylic acid], the “% Inhibition at 50 μM” value in [3] (setting [11]) is on record as 98%. Moreover, the IC50 in series [4] (setting [12]) and in series [4] (read-out: IC50) was 270 nM in each case. The “Ligand efficiency (LE)” value in series [4] came out at 0.99. For the same compound, the inhibition constant Ki in [4] (setting [13]) and in [4] (read-out: Ki) was 13 nM in each case. Moreover, the “relative percentage growth” value is reported as 3.6% in [1] (Amox(+), 50 μM amoxicillin); 77% in [1] (Amox(−)); 3.2% in series [2] (Amox(+), 50 μM amoxicillin); 61% in [2] (Amox(−)). Moreover, the “antibacterial activity on their own, in words” value in series [1] (wild type E. coli) and in [2] was “moderate antibacterial activity” in each case. In addition, the “synergistic growth inhibition with amoxicillin” value in series [2] is given as “over 90%”. The EC50 in series [6] is 100 nM and 110 nM. In series [7], this compound gave a CC50 of 97000 nM. Further, the “range selectivity among all eleven HDACs” value in [8] is roughly 5000 fold. The “fold change in cytotoxicity from parent compound 2” value in [9] was determined as 6900 fold.

On to `O=C(N[C@@H](C(=O)O)c1ccccc1)c1cccc(=S)n1O` [Compound 5], for which the “% Inhibition at 50 μM” value in [3] (setting [11]) was determined as 34%. In series [3], the “VIM2 inhibition in words” value was “Moderate inhibitory activities”. Further, in series [4], the “fold loss of Ki relative to compound 3” value was 576 fold and the “Ligand efficiency (LE)” value stood at 0.34. Moreover, the half-maximal inhibitory concentration (IC50) in [4] (setting [12]) came out at 67900 nM. Also, the Ki in series [4] (setting [13]) is 7500 nM.

Take `C[C@H](CS)C(=O)N1CCC[C@H]1C(=O)O` [L-Captopril]: in [3] (setting [11]), the “% Inhibition at 50 μM” value is reported as 98%. In addition, the “antibacterial activity on their own, in words” value in [1] (wild type E. coli) and in series [2] was “moderate antibacterial activity” each time. The “synergistic growth inhibition with amoxicillin” value in series [2] is given as “over 90%”. Further, the half-inhibitory concentration (IC50) in series [10] was 4400 nM.

As to `O=C(CCCCCCC(=O)Nc1ccccc1)NO` [SAHA], in series [3] (setting [11]), the “% Inhibition at 50 μM” value is 29%. Further, in series [3], the “VIM2 inhibition in words” value is recorded as “Poor inhibition”. Also, the “relative percentage growth” value in series [1] (Amox(+), 50 μM amoxicillin) is listed as 3.6%; in [1] (Amox(−)) it was 83%; in series [2] (Amox(+), 50 μM amoxicillin), 60%; in series [2] (Amox(−)), 79%.

`C[C@]1(Cn2ccnn2)[C@H](C(=O)O)N2C(=O)C[C@H]2S1(=O)=O` [Tazobactam]: in [3] (setting [11]), the “% Inhibition at 50 μM” value amounted to 25% and the inhibition at 50 µM was no more than 25%.

Consider Zinc pyrithione [Compound 2a], for which, in series [3] (setting [11]), the “% Inhibition at 50 μM” value is given as 15%.
